The values that follow come from ChEMBL document CHEMBL4130538, “Discovery of novel anti-angiogenesis agents. Part 7: Multitarget inhibitors of VEGFR-2, TIE-2 and EphB4” (Eur J Med Chem, 2017).

SMILES strings stand for the structures.

Chain of Hepatocyte growth factor receptor (P08581 whole entry): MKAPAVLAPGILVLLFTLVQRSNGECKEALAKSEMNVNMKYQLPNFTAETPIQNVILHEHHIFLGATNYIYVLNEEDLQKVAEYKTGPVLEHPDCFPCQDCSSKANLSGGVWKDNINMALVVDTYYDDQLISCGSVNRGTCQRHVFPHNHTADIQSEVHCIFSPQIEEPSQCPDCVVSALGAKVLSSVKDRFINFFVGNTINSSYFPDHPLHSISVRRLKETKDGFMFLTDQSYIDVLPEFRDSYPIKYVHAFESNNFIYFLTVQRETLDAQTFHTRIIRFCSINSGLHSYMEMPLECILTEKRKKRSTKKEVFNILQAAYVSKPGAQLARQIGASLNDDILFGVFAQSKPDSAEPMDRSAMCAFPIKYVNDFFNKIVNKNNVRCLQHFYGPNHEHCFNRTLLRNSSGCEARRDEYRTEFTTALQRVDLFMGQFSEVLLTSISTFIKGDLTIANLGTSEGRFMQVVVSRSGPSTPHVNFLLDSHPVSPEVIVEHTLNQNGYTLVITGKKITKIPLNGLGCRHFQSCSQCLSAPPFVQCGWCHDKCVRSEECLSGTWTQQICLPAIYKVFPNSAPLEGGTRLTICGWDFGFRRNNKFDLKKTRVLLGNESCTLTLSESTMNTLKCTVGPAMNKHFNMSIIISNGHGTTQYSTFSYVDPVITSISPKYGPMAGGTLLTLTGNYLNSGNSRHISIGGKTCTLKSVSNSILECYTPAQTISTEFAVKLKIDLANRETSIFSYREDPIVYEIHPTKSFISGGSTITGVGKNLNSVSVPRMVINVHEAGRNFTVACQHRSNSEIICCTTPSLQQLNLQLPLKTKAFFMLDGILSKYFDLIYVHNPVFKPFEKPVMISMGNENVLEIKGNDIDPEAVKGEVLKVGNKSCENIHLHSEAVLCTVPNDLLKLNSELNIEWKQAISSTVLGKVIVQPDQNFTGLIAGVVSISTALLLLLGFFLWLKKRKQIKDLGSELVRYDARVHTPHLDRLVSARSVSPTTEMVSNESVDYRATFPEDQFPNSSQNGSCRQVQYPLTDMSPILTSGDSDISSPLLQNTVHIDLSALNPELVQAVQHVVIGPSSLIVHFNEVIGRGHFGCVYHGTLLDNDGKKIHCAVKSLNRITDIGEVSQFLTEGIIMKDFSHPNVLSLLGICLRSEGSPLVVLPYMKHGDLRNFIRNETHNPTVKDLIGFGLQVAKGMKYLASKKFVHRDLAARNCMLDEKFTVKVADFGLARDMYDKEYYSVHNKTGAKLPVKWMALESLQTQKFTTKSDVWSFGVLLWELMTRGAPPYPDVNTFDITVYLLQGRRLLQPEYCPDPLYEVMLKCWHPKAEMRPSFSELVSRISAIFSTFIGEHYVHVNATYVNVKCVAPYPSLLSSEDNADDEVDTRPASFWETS

The target of one test is Vascular endothelial growth factor receptor 2 (Homo sapiens, UniProt P35968). Kind of test: Inhibition of VEGFR-2 (unknown origin) after 60 mins by ADP-Glo luminescence assay.
Chain of Vascular endothelial growth factor receptor 2 (P35968 whole entry): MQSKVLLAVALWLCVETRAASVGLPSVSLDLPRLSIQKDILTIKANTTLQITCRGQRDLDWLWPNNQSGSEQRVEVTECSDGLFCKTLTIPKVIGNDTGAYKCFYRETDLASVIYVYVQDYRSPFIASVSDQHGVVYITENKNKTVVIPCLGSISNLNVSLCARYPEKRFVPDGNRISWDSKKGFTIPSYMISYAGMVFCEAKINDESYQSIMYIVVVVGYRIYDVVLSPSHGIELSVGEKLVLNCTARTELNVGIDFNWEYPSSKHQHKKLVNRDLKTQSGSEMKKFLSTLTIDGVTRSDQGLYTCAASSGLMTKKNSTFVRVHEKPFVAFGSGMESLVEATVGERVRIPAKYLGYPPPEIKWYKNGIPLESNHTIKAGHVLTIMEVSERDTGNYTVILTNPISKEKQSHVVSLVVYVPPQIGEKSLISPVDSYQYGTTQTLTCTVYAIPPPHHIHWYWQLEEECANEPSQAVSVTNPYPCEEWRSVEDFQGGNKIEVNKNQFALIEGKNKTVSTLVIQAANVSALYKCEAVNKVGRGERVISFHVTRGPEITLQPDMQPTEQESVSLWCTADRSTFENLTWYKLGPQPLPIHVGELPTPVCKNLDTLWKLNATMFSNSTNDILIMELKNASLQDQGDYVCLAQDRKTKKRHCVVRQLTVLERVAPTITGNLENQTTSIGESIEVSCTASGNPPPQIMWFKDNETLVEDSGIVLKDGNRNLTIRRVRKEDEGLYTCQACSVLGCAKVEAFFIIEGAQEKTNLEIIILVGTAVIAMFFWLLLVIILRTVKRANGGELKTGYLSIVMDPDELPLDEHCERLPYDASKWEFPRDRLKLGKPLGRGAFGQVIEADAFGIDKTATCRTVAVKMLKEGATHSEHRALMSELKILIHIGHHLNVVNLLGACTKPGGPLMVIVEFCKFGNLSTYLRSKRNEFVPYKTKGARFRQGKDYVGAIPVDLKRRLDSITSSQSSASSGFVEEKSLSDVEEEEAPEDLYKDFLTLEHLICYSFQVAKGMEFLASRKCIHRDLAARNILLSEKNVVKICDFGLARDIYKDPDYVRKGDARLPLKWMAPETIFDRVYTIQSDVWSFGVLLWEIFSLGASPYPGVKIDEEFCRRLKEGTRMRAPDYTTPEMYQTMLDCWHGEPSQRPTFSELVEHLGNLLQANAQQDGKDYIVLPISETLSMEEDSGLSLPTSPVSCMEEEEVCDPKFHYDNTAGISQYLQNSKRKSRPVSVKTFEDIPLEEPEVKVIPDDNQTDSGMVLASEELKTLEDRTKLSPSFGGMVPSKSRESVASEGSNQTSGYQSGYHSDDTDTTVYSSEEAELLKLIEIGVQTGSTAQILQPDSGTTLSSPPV
Conditions: not given
For orientation: ADP-Glo turns the ADP formed in a reaction into a luminescent signal.
The IC50 is the concentration that inhibits the measured activity by half. The molecule `Nc1ncc2ccc(-c3ccc(NC(=O)C4(C(=O)Nc5ccc(OCCCN6CCOCC6)c(F)c5)CC4)cc3)cc2n1` displayed an IC50 greater than 0.5 µM. `Nc1ncc2ccc(-c3ccc(NC(=O)C4(C(=O)Nc5ccc6c(c5)OCO6)CC4)cc3)cc2n1` displayed an IC50 greater than 0.5 µM.

The target in a further test is Angiopoietin-1 receptor (Homo sapiens, UniProt Q02763). Briefly: Inhibition of TIE-2 (unknown origin) after 4 hrs by ADP-Glo luminescence assay.
Chain of Angiopoietin-1 receptor (Q02763 whole entry): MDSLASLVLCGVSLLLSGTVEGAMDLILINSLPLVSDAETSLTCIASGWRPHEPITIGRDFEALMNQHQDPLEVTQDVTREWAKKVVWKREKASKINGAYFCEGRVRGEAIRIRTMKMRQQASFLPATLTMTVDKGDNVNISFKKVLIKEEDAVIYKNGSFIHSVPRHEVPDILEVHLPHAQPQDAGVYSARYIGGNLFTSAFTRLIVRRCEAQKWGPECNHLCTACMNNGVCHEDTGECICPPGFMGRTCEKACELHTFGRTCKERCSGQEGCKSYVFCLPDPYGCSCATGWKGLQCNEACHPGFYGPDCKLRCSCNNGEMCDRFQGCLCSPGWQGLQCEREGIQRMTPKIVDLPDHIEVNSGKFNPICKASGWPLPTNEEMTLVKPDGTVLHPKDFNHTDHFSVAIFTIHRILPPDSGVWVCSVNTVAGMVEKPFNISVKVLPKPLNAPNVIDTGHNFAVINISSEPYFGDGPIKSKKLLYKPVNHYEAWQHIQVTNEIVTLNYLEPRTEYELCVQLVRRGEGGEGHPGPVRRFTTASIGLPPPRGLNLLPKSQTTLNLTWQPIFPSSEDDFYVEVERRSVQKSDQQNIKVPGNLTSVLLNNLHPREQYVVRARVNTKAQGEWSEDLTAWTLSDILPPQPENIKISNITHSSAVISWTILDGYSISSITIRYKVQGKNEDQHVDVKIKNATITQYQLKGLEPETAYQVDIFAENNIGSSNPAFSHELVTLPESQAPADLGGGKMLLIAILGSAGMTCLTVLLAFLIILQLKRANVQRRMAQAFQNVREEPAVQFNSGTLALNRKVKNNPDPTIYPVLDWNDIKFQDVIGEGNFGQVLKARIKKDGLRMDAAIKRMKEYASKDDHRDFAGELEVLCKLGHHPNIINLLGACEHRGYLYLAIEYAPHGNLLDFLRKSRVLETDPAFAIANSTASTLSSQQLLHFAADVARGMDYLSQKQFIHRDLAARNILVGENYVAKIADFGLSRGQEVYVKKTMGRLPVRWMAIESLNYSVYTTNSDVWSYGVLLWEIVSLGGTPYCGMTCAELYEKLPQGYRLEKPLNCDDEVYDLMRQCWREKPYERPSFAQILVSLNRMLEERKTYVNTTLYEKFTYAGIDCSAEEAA
Conditions: not given
With `C=CC(=O)Nc1ccc(-c2ccc(NC(=O)Nc3ccc(C(C)(C)C)cc3)cc2)cn1`, half-maximal inhibition (IC50) required 0.0213 µM. As to `C=CC(=O)Nc1ccc(-c2ccc(NC(=O)Nc3cccc(C(C)C)c3)cc2)cn1`, 0.00919 µM corresponded to half-maximal inhibition (IC50). Compared with the last molecule, the IC50 is about 2.3-fold lower. On the same count and under the same terms, as for `C=CC(=O)Nc1ccc(-c2ccc(NC(=O)Nc3ccc(C)c(Cl)c3)cc2)cn1`, the figure is 0.0142 µM; as for `O=C(Nc1cccc(Cl)c1)Nc1cccc(-c2ccc3c(=O)[nH]cnc3c2)c1`, 0.0248 µM. Regarding `Nc1ncc2ccc(-c3ccc(NC(=O)C4(C(=O)Nc5cc(Br)ccc5OC(F)(F)F)CC4)cc3)cc2n1`, the half-inhibitory concentration (IC50) is greater than 0.5 µM.

Regarding `O=C(Nc1cccc(-c2ccc3c(=O)[nH]cnc3c2)c1)Nc1cccc(C(F)(F)F)c1`, the IC50 is 0.0128 µM. Still for that read-out and setting: as for `C=CC(=O)Nc1ccc(-c2ccc(NC(=O)Nc3ccc(F)cc3)cc2)cn1`, the figure is 0.105 µM; as for `Nc1ncc2ccc(-c3ccc(NC(=O)C4(C(=O)Nc5ccc(F)c(F)c5)CC4)cc3)cc2n1`, 0.0145 µM; as for `Nc1ncc2ccc(-c3ccc(NC(=O)C4(C(=O)Nc5cc(Br)cc(C(F)(F)F)c5)CC4)cc3)cc2n1`, 0.0653 µM. The molecule `O=C(Nc1cccc(-c2ccc3c(=O)[nH]cnc3c2)c1)Nc1cc(C(F)(F)F)cc(C(F)(F)F)c1` displayed an IC50 of 0.245 µM. For `C=CC(=O)Nc1ccc(-c2ccc(NC(=O)Nc3cccc(Cl)c3)cc2)cn1`, the 50% inhibitory concentration (IC50) was found to be 0.00563 µM. The molecule `Nc1ncc2ccc(-c3ccc(NC(=O)C4(C(=O)Nc5ccc(OC(F)(F)F)cc5Br)CC4)cc3)cc2n1` gave an IC50 greater than 0.5 µM. Still for that read-out and setting: as for `Nc1ncc2ccc(-c3ccc(NC(=O)C4(C(=O)Nc5ccc(Br)cc5OC(F)(F)F)CC4)cc3)cc2n1`, the figure is greater than 0.5 µM. The molecule `O=C(Nc1cccc(-c2ccc3c(=O)[nH]cnc3c2)c1)Nc1ccc(F)c(F)c1` displayed an IC50 of 0.0166 µM. In other words, the double-digit nanomolar range. The molecule `Nc1ncc2ccc(-c3ccc(NC(=O)C4(C(=O)Nc5cc(OC(F)(F)F)ccc5Br)CC4)cc3)cc2n1` returned an IC50 of 0.0147 µM. The molecule `Nc1ncc2ccc(-c3ccc(NC(=O)C4(C(=O)Nc5cc(C(F)(F)F)cc(C(F)(F)F)c5)CC4)cc3)cc2n1` returned an IC50 of 0.0212 µM. The IC50 values of the last two molecules are within 1.5-fold of each other.

As to `Nc1ncc2ccc(-c3ccc(NC(=O)C4(C(=O)Nc5ccc(OCCCN6CCOCC6)c(F)c5)CC4)cc3)cc2n1`, the half-inhibitory concentration (IC50) was greater than 0.5 µM. Turning to `Nc1ncc2ccc(-c3ccc(NC(=O)C4(C(=O)Nc5ccc6c(c5)OCO6)CC4)cc3)cc2n1`, the IC50 amounted to 0.432 µM. Regarding `Nc1ncc2ccc(-c3ccc(NC(=O)C4(C(=O)Nc5ccc(Cl)c(Cl)c5)CC4)cc3)cc2n1`, the half-maximal inhibitory concentration (IC50) was greater than 0.5 µM. `C=CC(=O)Nc1ccc(-c2ccc(NC(=O)Nc3cccc(F)c3)cc2)cn1` came in with a half-inhibitory concentration (IC50) of 0.0909 µM. Turning to `Nc1ncc2ccc(-c3ccc(NC(=O)C4(C(=O)Nc5ccc(Cl)cc5Cl)CC4)cc3)cc2n1`, half-maximal inhibition (IC50) required 0.0549 µM. `C=CC(=O)Nc1ccc(-c2ccc(NC(=O)Nc3ccccc3Cl)cc2)cn1` gave an IC50 of 0.00797 µM. In the case of `C=CC(=O)Nc1ccc(-c2ccc(NC(=O)Nc3ccc(Cl)c(C(F)(F)F)c3)cc2)cn1`, the IC50 was found to be 0.00977 µM. The IC50 values of the last two molecules are within 1.5-fold of each other. Molecule `C=CC(=O)Nc1ccc(-c2ccc(NC(=O)Nc3cccc(C(F)(F)F)c3)cc2)cn1` had a 50% inhibitory concentration (IC50) of 0.00359 µM. Molecule `C=CC(=O)Nc1ccc(-c2ccc(NC(=O)Nc3c(C)cccc3C)cc2)cn1` displayed a concentration for half-maximal inhibition (IC50) greater than 0.5 µM. In the case of `C=CC(=O)Nc1ccc(-c2ccc(NC(=O)Nc3ccc(OC(F)(F)F)cc3)cc2)cn1`, the IC50 is 0.0599 µM.

In turn, `O=C(Nc1cccc(-c2ccc3c(=O)[nH]cnc3c2)c1)Nc1ccc(Cl)c(C(F)(F)F)c1` returned an IC50 greater than 0.5 µM.

Another test deals with T1, Ephrin type-B receptor 4 (Homo sapiens, UniProt P54760).
T1 sequence (P54760 whole entry): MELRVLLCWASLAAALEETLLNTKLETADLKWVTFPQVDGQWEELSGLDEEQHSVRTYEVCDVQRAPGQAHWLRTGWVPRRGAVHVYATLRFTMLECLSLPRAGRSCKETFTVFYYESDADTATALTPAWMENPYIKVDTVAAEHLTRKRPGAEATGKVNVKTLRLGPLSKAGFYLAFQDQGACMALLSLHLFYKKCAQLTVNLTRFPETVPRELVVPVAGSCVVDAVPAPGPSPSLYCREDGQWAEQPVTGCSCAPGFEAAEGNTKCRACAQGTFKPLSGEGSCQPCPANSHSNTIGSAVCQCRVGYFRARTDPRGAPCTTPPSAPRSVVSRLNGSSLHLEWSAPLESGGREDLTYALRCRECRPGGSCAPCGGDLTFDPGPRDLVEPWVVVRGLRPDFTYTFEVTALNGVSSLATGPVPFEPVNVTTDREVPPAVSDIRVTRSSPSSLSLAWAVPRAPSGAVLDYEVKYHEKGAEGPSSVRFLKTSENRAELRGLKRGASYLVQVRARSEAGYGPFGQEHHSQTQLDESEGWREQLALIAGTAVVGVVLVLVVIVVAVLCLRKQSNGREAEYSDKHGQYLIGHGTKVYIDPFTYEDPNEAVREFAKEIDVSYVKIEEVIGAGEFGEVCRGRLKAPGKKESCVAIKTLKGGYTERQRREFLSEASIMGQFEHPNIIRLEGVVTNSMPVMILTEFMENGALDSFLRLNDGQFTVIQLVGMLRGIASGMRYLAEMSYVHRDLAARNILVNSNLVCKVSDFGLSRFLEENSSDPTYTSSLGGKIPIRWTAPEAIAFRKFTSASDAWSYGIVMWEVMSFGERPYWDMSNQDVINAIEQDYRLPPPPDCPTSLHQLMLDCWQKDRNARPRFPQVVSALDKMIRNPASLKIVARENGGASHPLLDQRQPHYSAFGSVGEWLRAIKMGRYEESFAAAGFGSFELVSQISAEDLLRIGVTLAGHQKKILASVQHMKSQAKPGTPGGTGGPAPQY
Briefly: Inhibition of EphB4 (unknown origin) after 4 hrs by ADP-Glo luminescence assay.
Conditions: not given
`Nc1ncc2ccc(-c3ccc(NC(=O)C4(C(=O)Nc5ccc(OCCCN6CCOCC6)c(F)c5)CC4)cc3)cc2n1` showed an IC50 greater than 0.5 µM. Molecule `Nc1ncc2ccc(-c3ccc(NC(=O)C4(C(=O)Nc5ccc6c(c5)OCO6)CC4)cc3)cc2n1` yielded an IC50 greater than 0.5 µM.

The target in another test is Vascular endothelial growth factor receptor 1 (Homo sapiens, UniProt P17948). Kind of test: Inhibition of VEGFR-1 (unknown origin).
Conditions: not given
`C=CC(=O)Nc1ccc(-c2ccc(NC(=O)Nc3cccc(Cl)c3)cc2)cn1` had a concentration for half-maximal inhibition (IC50) of 0.025 µM.

For another test, the target named is Vascular endothelial growth factor receptor 3 (Homo sapiens, UniProt P35916). Briefly: Inhibition of VEGFR-3 (unknown origin).
Conditions: not given
Take `C=CC(=O)Nc1ccc(-c2ccc(NC(=O)Nc3cccc(Cl)c3)cc2)cn1`: inhibition was half-maximal at 0.045 µM (IC50).

The target in the next test is Epidermal growth factor receptor (Homo sapiens, UniProt P00533). Briefly: Inhibition of EGFR (unknown origin).
Conditions: not given
The molecule `C=CC(=O)Nc1ccc(-c2ccc(NC(=O)Nc3cccc(Cl)c3)cc2)cn1` had a half-maximal inhibitory concentration (IC50) of 0.0087 µM. In other words, the single-digit nanomolar range.

Another test addresses Fibroblast growth factor receptor 1 (Homo sapiens, UniProt P11362). Briefly: Inhibition of FGFR-1 (unknown origin).
Conditions: not given
`C=CC(=O)Nc1ccc(-c2ccc(NC(=O)Nc3cccc(Cl)c3)cc2)cn1` gave a half-maximal inhibitory concentration (IC50) of 0.2 µM.

For the next test, the target named is Fibroblast growth factor receptor 4 (Homo sapiens, UniProt P22455). Briefly: Inhibition of FGFR-4 (unknown origin).
Conditions: not given
`C=CC(=O)Nc1ccc(-c2ccc(NC(=O)Nc3cccc(Cl)c3)cc2)cn1`: it took 1.08 µM to reach half-maximal inhibition (IC50).

A further test addresses Platelet-derived growth factor receptor beta (Homo sapiens, UniProt P09619). Kind of test: Inhibition of PDGFRbeta (unknown origin).
Conditions: not given
The molecule `C=CC(=O)Nc1ccc(-c2ccc(NC(=O)Nc3cccc(Cl)c3)cc2)cn1` showed a half-maximal inhibitory concentration (IC50) of 0.18 µM. In other words, the sub-micromolar range.

A further test concerns the target Insulin-like growth factor 1 receptor (Homo sapiens, UniProt P08069). Kind of test: Inhibition of IGF1-R (unknown origin).
Conditions: not given
With `C=CC(=O)Nc1ccc(-c2ccc(NC(=O)Nc3cccc(Cl)c3)cc2)cn1`, 0.04 µM corresponded to half-maximal inhibition (IC50).

Another test deals with Serine/threonine-protein kinase B-raf (Homo sapiens, UniProt P15056). Kind of test: Inhibition of BRAF (unknown origin).
Conditions: not given
In the case of `C=CC(=O)Nc1ccc(-c2ccc(NC(=O)Nc3cccc(Cl)c3)cc2)cn1`, the concentration for half-maximal inhibition (IC50) stood at 0.032 µM.

The next test deals with Mast/stem cell growth factor receptor Kit (Homo sapiens, UniProt P10721). Kind of test: Inhibition of cKIT (unknown origin).
Chain of Mast/stem cell growth factor receptor Kit (P10721 whole entry): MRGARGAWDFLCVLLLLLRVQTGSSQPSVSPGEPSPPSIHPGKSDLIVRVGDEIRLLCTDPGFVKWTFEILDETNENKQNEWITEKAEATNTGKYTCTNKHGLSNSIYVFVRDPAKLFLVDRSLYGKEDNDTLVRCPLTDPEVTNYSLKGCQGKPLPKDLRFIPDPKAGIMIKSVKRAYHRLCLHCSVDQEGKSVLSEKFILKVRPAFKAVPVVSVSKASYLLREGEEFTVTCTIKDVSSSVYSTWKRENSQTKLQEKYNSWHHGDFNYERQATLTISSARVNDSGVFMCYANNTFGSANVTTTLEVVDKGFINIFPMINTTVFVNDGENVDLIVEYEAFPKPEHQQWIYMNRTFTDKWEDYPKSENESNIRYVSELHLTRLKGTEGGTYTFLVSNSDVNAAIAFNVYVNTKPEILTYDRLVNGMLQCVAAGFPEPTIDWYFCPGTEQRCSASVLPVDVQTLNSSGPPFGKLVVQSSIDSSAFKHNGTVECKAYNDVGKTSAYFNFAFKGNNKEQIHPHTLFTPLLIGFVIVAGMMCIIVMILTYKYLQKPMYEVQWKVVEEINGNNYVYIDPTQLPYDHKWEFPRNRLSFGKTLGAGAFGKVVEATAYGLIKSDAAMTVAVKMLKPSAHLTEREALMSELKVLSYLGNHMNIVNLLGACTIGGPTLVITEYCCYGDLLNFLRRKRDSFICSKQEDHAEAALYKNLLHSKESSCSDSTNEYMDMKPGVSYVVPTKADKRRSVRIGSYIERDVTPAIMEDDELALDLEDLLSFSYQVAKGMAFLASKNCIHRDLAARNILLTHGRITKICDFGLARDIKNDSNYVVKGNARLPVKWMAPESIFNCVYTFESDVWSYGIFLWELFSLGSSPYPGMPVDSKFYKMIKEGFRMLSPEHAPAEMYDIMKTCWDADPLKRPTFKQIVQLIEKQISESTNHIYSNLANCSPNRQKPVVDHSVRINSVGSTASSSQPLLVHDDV
Conditions: not given
`C=CC(=O)Nc1ccc(-c2ccc(NC(=O)Nc3cccc(Cl)c3)cc2)cn1` yielded a half-maximal inhibitory concentration (IC50) of 0.0689 µM.

A further test concerns the target Hepatocyte growth factor receptor (Homo sapiens, UniProt P08581). Kind of test: Inhibition of cMET (unknown origin).
Conditions: not given
In turn, `C=CC(=O)Nc1ccc(-c2ccc(NC(=O)Nc3cccc(Cl)c3)cc2)cn1` returned a half-maximal inhibitory concentration (IC50) of 0.0578 µM.

In another test the test system is EA.hy 926. Briefly: Anti-angiogenic activity in human EAhy926 cells as growth inhibition after 24 hrs by CCK-8 assay. The test is classed as cell-based. The note with it: EA.hy 926, 24 h.
In the case of `Nc1ncc2ccc(-c3ccc(NC(=O)C4(C(=O)Nc5ccc(OCCCN6CCOCC6)c(F)c5)CC4)cc3)cc2n1`, the 50% inhibitory concentration (IC50) was determined as 32.2 µM. The same measure, in the same setting: as for `Nc1ncc2ccc(-c3ccc(NC(=O)C4(C(=O)Nc5ccc6c(c5)OCO6)CC4)cc3)cc2n1`, the figure is 29.2 µM.
